Laboratory results from patent publication US20140031217A1, “HERBICIDAL COMPOSITIONS COMPRISING 4-AMINO-3-CHLORO-5-FLUORO-6-(4-CHLORO-2-FLUORO-3-METHOXYPHENYL)PYRIDINE-2-CARBOXYLIC ACID OR A DERIVATIVE THEREOF AND AUXIN TRANSPORT INHIBITORS” (DOW AGROSCIENCES LLC, priority 2012, published 2014).

How the values were obtained:
DIGSA = test: Postemergence foliar-applied greenhouse weed control, DIGSA; format: in vivo, Digitaria sanguinalis (L.) Scop.
From the text: Seeds or nutlets of the desired test plant species were planted in a soil matrix prepared by mixing a loam or sandy loam soil (e.g., 28.6 percent silt, 18.8 percent clay, and 52.6 percent sand, with a pH of about 5.8 and an organic matter content of about 1.8 percent) and calcareous grit in an 80 to 20 ratio. The soil matrix was contained in plastic pots with a volume of 1 quart and a surface area of 83.6 square centimeters (cm^2). When required to ensure good germination and healthy plants, a fungicide treatment and/or other chemical or physical treatment was applied. The plants were grown for 8-22 days in a greenhouse with an approximate 14 h photoperiod which was maintained at about 29° C. during the day and 26° C. during the night. Nutrients (Peters Excel® 15-5-15 5-Ca 2-Mg and iron chelate) were applied in the irrigation solution as needed and water was added on a regular basis. Supplemental lighting was provided with overhead metal halide 1000-Watt lamps as necessary. The plants were employed for testing when they reached the first through fourth true leaf stage.
Treatments consisted of the acid or esters of 4-amino-3-chloro-5-fluoro-6-(4-chloro-2-fluoro-3-methoxy-phenyl) pyridine-2-carboxylic acid (Compound A), each formulated as an SC (suspension concentrate), and various herbicidal components alone and in combination. Forms of compound A were applied on an acid equivalent basis.
Other herbicidal components were applied on an active ingredient basis and included auxin transport inhibiting (ATI) herbicides chlorflurenol (technical material), chlorflurenol-methyl (technical material), diflufenzopyr (technical material), diflufenzopyr sodium (technical material), flurenol-methyl (technical material) and naptalam (technical material).
Treatment requirements were calculated based upon the rates being tested, the concentration of active ingredient or acid equivalent in the formulation, and a 12 mL application volume at a rate of 187 L/ha.
For treatments comprised of formulated and technical compounds, weighed amounts of the technical materials were placed individually in 25 mL glass vials and dissolved in a volume of 97:3 v/v acetone/DMSO to obtain 12× stock solutions, and measured amounts of the formulated compounds were placed individually in 25 mL glass vials and diluted in a volume of 1.5% (v/v) crop oil concentrate or water to obtain 12× stock solutions. […] Application solutions were prepared by adding an appropriate amount of each stock solution (e.g., 1 mL) and diluted to the appropriate final concentrations with the addition of an appropriate amount of an aqueous mixture of 1.5% (v/v) crop oil concentrate so that the final spray solutions contained 1.25% (v/v) crop oil concentrate. When required, additional water and/or 97:3 v/v acetone/DMSO was added to individual application solutions so that the final acetone and DMSO concentrations of the application solutions being compared were 8.1% and 0.25%, respectively.
All stock solutions and applications solutions were visually inspected for compound compatibility prior to application. Spray solutions were applied to the plant material with an overhead Mandel track sprayer equipped with an 8002E nozzle calibrated to deliver 187 L/ha over an application area of 0.503 m^2 at a spray height of 18 to 20 inches (46 to 50 cm) above average plant canopy height. Control plants were sprayed in the same manner with the solvent blank.
The treated plants and control plants were placed in a greenhouse as described above and watered by sub-irrigation to prevent wash-off of the test compounds. After approximately 3 weeks, the condition of the test plants as compared with that of the untreated plants was determined visually and scored on a scale of 0 to 100 percent where 0 corresponds to no injury or growth inhibition and 100 corresponds to complete kill. […]

CYPRO = test: In-water applied (paddy) greenhouse weed control, CYPRO; format: in vivo, Cyperus rotundus L.; settings: 19 DAA
Protocol: Weed seeds or nutlets of the desired test plant species were planted in puddled soil (mud) prepared by mixing a shredded, non-sterilized mineral soil (50.5 percent silt, 25.5 percent clay, and 24 percent sand, with a pH of about 7.6 and an organic matter content of about 2.9 percent) and water at a 1:1 volumetric ratio. The prepared mud was dispensed in 365 mL aliquots into 16-ounce (oz.) non-perforated plastic pots with a surface area of 86.59 square centimeters (cm^2) leaving a headspace of 3 centimeters (cm) in each pot. Mud was allowed to dry overnight prior to planting or transplanting. Rice seeds were planted in Sun Gro MetroMix® 306 planting mixture, which typically has a pH of 6.0 to 6.8 and an organic matter content of about 30 percent, in plastic plug trays. Seedlings at the second or third leaf stage of growth were transplanted into 840 mL of mud contained in 32-oz. non-perforated plastic pots with a surface area of 86.59 cm^2 4 days prior to herbicide application. The paddy was created by filling the headspace of the pots with 2.5 to 3 cm of water. When required to ensure good germination and healthy plants, a fungicide treatment and/or other chemical or physical treatment was applied. The plants were grown for 4-22 days in a greenhouse with an approximate 14 h photoperiod which was maintained at about 29′C during the day and 26° C. during the night. Nutrients were added as Osmocote® (19:6:12, N:P:K+minor nutrients) at 2 g per 16-oz. pot and 4 g per 960-mL 32-oz. pot. Water was added on a regular basis to maintain the paddy flood, and supplemental lighting was provided with overhead metal halide 1000-Watt lamps as necessary. The plants were employed for testing when they reached the second or third true leaf stage.
Treatments consisted of the acid or esters of 4-amino-3-chloro-5-fluoro-6-(4-chloro-2-fluoro-3-methoxy-phenyl)pyridine-2-carboxylic acid (compound A) each formulated as an SC and various herbicidal components alone and in combination. Forms of compound A were applied on an acid equivalent basis.
Other herbicidal components were applied on an active ingredient basis and included auxin transport inhibiting (ATI) herbicides chlorflurenol-methyl (technical material), chlorflurenol (technical material), diflufenzopyr (technical material), dilfufenzopyr sodium (technical material), flurenol-methyl (technical material,) and naptalam (technical material).
Treatment requirements for each compound or herbicidal component were calculated based upon the rates being tested, the concentration of active ingredient or acid equivalent in the formulation, an application volume of 2 mL per component per pot, and an application area of 86.59 cm^2 per pot.
For formulated compounds, a measured amount was placed in an individual 100 or 200 mL glass vial and was dissolved in a volume of 1.25% (v/v) Agri-Dex® crop oil concentrate to obtain application solutions.
For technical grade compounds, a weighed amount was placed in an individual 100 to 200 mL glass vial and was dissolved in a volume of acetone to obtain concentrated stock solutions. […] The concentrated stock solutions obtained were diluted with an equivalent volume of an aqueous mixture containing 2.5% (v/v) crop oil concentrate so that the final application solutions contained 1.25% (v/v) crop oil concentrate.
Applications were made by injecting with a pipetter appropriate amounts of the application solutions, individually and sequentially, into the aqueous layer of the paddy. Control plants were treated in the same manner with the solvent blank. Applications were made so that all treated plant material received the same concentrations of acetone and crop oil concentrate.
The treated plants and control plants were placed in a greenhouse as described above and water was added as needed to maintain a paddy flood. […]

## COc1c(Cl)ccc(-c2nc(C(=O)OCc3ccccc3)c(Cl)c(N)c2F)c1F [Compound A Benzyl Ester]
DIGSA; 20 DAA, 4.38 gae/ha
  Visual Weed Control (%) Obs: 40%
DIGSA; 20 DAA, 8.75 gae/ha
  Visual Weed Control (%) Obs: 40%
DIGSA; 21 DAA, 17.5 gae/ha
  Visual Weed Control (%) Obs: 30%
CYPRO; 8 gae/ha
  Visual Weed Control (%) Obs: 50%
CYPRO; 16 gae/ha
  Visual Weed Control (%) Obs: 85%
CYPRO; 32 gae/ha
  Visual Weed Control (%) Obs: 90%
